Experimental findings from article PMC4705222, “Identification of a Catalase-Phenol Oxidase in Betalain Biosynthesis in Red Amaranth (Amaranthus cruentus)” (Frontiers in Plant Science, 2016) are described below.

The target of data set [1] is T1, AcCATPO (Amaranthus cruentus, UniProt A0A2Z0PTH5).
T1 sequence (A0A2Z0PTH5 1-492): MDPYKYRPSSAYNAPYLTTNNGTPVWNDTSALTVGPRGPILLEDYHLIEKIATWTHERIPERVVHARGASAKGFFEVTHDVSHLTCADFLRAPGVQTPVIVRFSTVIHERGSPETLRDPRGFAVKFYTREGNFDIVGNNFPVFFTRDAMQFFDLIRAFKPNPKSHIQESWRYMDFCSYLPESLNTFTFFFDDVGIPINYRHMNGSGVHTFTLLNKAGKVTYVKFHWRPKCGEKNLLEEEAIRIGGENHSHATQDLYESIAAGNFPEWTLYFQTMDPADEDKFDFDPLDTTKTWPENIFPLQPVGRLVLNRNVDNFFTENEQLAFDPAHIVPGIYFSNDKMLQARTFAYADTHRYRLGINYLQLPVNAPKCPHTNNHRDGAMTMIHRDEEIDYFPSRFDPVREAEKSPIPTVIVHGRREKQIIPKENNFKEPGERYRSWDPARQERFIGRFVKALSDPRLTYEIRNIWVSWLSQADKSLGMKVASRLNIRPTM
The data set is described as follows: catalase activity, H2O2 decrease at […] nm. It is filed as biochemical. The note with it: read-out: % inhibition at 1 mM.

Data set [2] addresses T1, AcCATPO. The data set is described as follows: monophenolase activity toward L-tyrosine, absorbance […] nm. In kind it is biochemical. The note with it: L-tyrosine substrate, 0.057 mM L-DOPA cofactor, no added CuSO4.
For data set [3], the target named is T1, AcCATPO. In kind it is biochemical.
For data set [4], the target named is T1, AcCATPO. The data set is described as follows: catalase activity, H2O2 decrease at […] nm. In kind it is biochemical. The note with it: not significant, H2O2 substrate (14 mM in standard assay), pH 7.0, 20 °C.
For data set [5], the target named is T1, AcCATPO. The data set is described as follows: diphenolase activity toward L-DOPA, absorbance […] nm and in-gel staining. It is filed as biochemical. Conditions: 1 mM L-DOPA substrate, pH 8.0, 60 °C, chelator.
For data set [6], the target named is T1, AcCATPO. Put plainly: monophenolase activity toward L-tyrosine, absorbance […] nm. It is filed as biochemical. Conditions: L-tyrosine substrate, 0.057 mM L-DOPA cofactor, no added CuSO4, chelator.
In data set [7] the target is T1, AcCATPO. The data set is described as follows: diphenolase activity toward L-DOPA, absorbance […] nm and in-gel staining. In kind it is biochemical. Conditions: activation, not inhibition, 1 mM L-DOPA substrate, pH 8.0, 60 °C.
The target of data set [8] is T1, AcCATPO. The data set is described as follows: monophenolase activity toward L-tyrosine, absorbance […] nm. It is filed as biochemical. Conditions: activation, not inhibition, L-tyrosine substrate, 0.057 mM L-DOPA cofactor, no added CuSO4.
Substrate in data set [9]: N[C@@H](Cc1ccc(O)c(O)c1)C(=O)O
The data set is described as follows: purified protein. It is filed as biochemical, Amaranthus cruentus. The note with it: diphenolase, pH 8.0, 60 °C.

Substrate in data set [10]: N[C@@H](Cc1ccc(O)cc1)C(=O)O
Put plainly: purified protein. The note with it: monophenolase, 0.057 mM L-DOPA as cofactor, pH 8.0, 60 °C. It is filed as biochemical, Amaranthus cruentus.

As usually defined, the inhibition is the relative decrease from the control value, in per cent. Consider `NNC(=O)c1ccncc1` [isoniazid], for which the inhibition at 1000 µM at AcCATPO [1] was roughly 90%.
In the case of `O=c1cc(CO)occ1O` [kojic acid], the “% decrease at 1 mM” value at AcCATPO [2] was ~ 15%.
For `NC(=S)Nc1ccccc1` [phenylthiocarbamide], the “% inhibition at 1 mM” value on AcCATPO [3] is recorded as “all inhibitors except tropolone, had a significantly inhibitory effect on the monophenolase activity”.
For `O=C(O)c1ccccc1O` [salicylic acid], at AcCATPO [4], the “% decrease at 1 mM” value is on record as less than 25%.
`CCN(CC)C(=S)S` [sodium diethyldithiocarbamate]: the “% loss of activity at 1 mM” value is on record as ~ 99% on AcCATPO [5] and ~ 80% at AcCATPO [6].
For `O=c1cccccc1O` [tropolone], the entries for the “% increase of activity at 1 mM” value on AcCATPO [7] and on AcCATPO [8] were ~ 55% and ~ 25%, respectively.

B1: AcCATPO (Amaranthus cruentus) (protein)
chain: T1 sequence (A0A2Z0PTH5 1-492)
notes: native, purified from red-violet leaves by native-PAGE gel slice; homotrimer ca. 170 kDa, subunit ca. 58 kDa; cDNA encodes 492 residues; peptides GPILLEDYHLIEK, APGVQTPVIVR, FSTVIHER, ENNFKEPGER, TFAYADTHR
The term Km denotes the substrate concentration at which the rate is half of its maximum. As a reminder, the Vmax is the rate approached at saturating substrate. Broadly, the kcat is the maximal rate divided by the concentration of active sites. Broadly, the kcat/Km is the second-order rate constant that governs catalysis at low substrate concentration. For the molecule B1, in the data set “purified protein [9]”, the Km was determined as 600 µM, the Vmax was determined as 0.75 µM/min, the kcat is 0.36 s⁻¹ and the catalytic efficiency (kcat/Km) stood at 600 M⁻¹ s⁻¹. Also, in “purified protein [10]”, the Michaelis-Menten constant (Km) is 200 µM, the maximal velocity (Vmax) stood at 0.079 µM/min, the kcat was found to be 0.04 s⁻¹ and the kcat/Km worked out at 200 M⁻¹ s⁻¹.
